According to US9776972B2, “Pyrazole derivatives as arginine methyltransferase inhibitors and uses thereof” (priority 2013, dated 2017):

Legend:
[1] = molecular target: T1, human PRMT6 (Homo sapiens, UniProt Q96LA8); assay: PRMT6 Biochemical Assay (3H-SAM Flashplate, peptide substrate); conditions: Biochemical IC50 PRMT6, single experiment or average of multiple experiments
T1 construct: Flag-PRMT6-His; made in house; host or cells: HEK 293F cells (BacMam baculovirus)
Procedure, shortened: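 Flag-PRMT6-His, expressed in mammalian cells from a BacMam vector, was preincubated with compound for 30 min at room temperature in Bicine pH 7.6 buffer with TCEP, BSG and Tween 20. Reactions were started with ³H-SAM and a biotinylated histone H4 36-50 peptide, then stopped with cold SAM (400 uM final). Labeled peptide was captured on streptavidin Flashplates, counted, and fitted to a 3- or 4-parameter curve.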

[2] = molecular target: human PRMT8 (Homo sapiens, UniProt Q9NR22); assay: PRMT8 Biochemical Assay (3H-SAM Flashplate, peptide substrate); conditions: single experiment or average of multiple experiments
Procedure, shortened: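 E. coli-expressed human PRMT8 (GST removed) was preincubated with compound for 30 min at room temperature in 20 mM Bicine pH 7.6 with TCEP, BSG and Tween 20. 3H-SAM and a biotinylated H4 31-45 peptide were then added, and the reaction was stopped with cold SAM. Labelled peptide was captured on streptavidin Flashplates; % inhibition was calculated against DMSO and SAH controls and fitted to a 3- or 4-parameter curve.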

Sequence of human PRMT8 (Q9NR22 whole entry): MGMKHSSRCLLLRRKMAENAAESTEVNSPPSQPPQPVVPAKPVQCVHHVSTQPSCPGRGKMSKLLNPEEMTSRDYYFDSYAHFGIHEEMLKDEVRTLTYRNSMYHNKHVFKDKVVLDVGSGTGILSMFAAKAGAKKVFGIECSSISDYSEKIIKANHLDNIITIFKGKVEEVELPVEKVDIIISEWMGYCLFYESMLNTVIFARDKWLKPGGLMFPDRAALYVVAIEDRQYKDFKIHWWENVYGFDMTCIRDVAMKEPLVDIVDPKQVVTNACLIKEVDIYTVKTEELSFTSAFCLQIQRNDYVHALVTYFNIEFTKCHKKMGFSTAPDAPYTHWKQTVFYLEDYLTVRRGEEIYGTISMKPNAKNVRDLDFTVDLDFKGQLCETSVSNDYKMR
T1 sequence (Q96LA8 with tags, fused parts or gaps): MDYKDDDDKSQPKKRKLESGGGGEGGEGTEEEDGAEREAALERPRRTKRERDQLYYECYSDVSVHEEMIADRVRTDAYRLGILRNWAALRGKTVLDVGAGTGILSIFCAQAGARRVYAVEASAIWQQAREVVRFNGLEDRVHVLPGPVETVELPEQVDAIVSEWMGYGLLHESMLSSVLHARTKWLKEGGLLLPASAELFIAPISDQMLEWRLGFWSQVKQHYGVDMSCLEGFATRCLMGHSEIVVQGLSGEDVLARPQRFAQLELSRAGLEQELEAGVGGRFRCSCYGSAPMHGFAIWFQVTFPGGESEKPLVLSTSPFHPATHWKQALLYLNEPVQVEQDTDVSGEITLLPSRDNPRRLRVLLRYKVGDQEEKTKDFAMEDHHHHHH

SMILES | IC50 [1] | IC50 [2]
CNCCN(C)Cc1cn(C)nc1-c1ccc(OC(C)C)c(Cl)c1 [Compound 206] | 21.4 nM | 349 nM
CNCCN(C)Cc1cn(C)nc1-c1ccc(Oc2ccccc2)cc1 [Compound 207] | 3.3 nM | 627 nM
CNCCN(C)Cc1cnn(C)c1-c1ccc(Oc2ccccc2)cc1 [Compound 208] | 2.93 nM | 279 nM
CN(CCN)Cc1c[nH]nc1-c1ccc(Oc2ccccc2)c(F)c1 [Compound 224, N^1-((3-(3-fluoro-4-phenoxyphenyl)-1H-pyrazol-4-yl)methyl)-N^1-methylethane-1,2-diamine] | 1.98 nM | 346 nM
CN(CCN)Cc1c[nH]nc1-c1ccc(Oc2ccc(F)cc2)cc1 [Compound 225, N^1-((3-(4-(4-fluorophenoxy)phenyl)-1H-pyrazol-4-yl)methyl)-N^1-methylethane-1,2-diamine] | 1.33 nM | 35.8 nM
CN(CCN)Cc1c[nH]nc1-c1ccc(Oc2ccccc2)c(C(=O)N(C)C)c1 [Compound 226] | 13.8 nM | 7250 nM
CNC(=O)c1cc(-c2n[nH]cc2CN(C)CCN)ccc1Oc1ccccc1 [Compound 227] | 11.5 nM | 660 nM

Now from value to compound:

IC50 [1] | IC50 [2] | SMILES
4.05 nM | 483 nM | CNCCN(C)Cc1c[nH]nc1-c1ccc(OCCCOC)cc1 [Compound 209]
16.1 nM | 182 nM | CNCCN(C)Cc1n[nH]cc1-c1ccc(OC(C)C)c(F)c1 [Compound 210]
20.5 nM | 117 nM | CC(C)Oc1ccc(-c2c[nH]nc2CN(C)CCN)cc1Cl [Compound 211]
9.07 nM | 40.3 nM | CNCCN(C)Cc1n[nH]cc1-c1ccc(OC(C)C)c(Cl)c1 [Compound 212]
6.72 nM | 328 nM | CNCCN(C)Cc1c[nH]nc1-c1ccc(Oc2ccccc2)c(C#N)c1 [Compound 221]
1160 nM | 8880 nM | CN(CCN)Cc1c(-c2ccc(C#N)cc2)ncn1C [Compound 222]
8.22 nM | 316 nM | CNCCN(C)Cc1c[nH]nc1-c1ccc(OCCCOC)c(Cl)c1 [Compound 228]
